{"source": "patent US20210260069A1", "about": "“IRE1a INHIBITOR IN COMBINATION WITH CANCER [sequence] AGENT FOR CANCER TREATMENT” (Fosun Orinove PharmaTech, Inc., priority 2018, published 2021)", "key": {"Hep3B-Luc cells": {"system": "Hep3B-Luc cells", "test": "Orthotopic Hep3B-luc human liver xenograft model (Example 22)", "format": "in vivo, female BALB/c nude mice", "protocol": "The tumor was inoculated by injecting Hep3B-Luc cells (established by WuXi AppTec R&D center) mixed with BD Matrigel in 20 μl (PBS:Matrigel=1:1) into the left lobe of the liver. […] Sorafenib was formulated with Cremophor® EL/ethanol (1:1) and purified water to form a solution of 9 mg/ml. […] Tumor weight was measured at the termination of study. T/Cweight value (in percent) was calculated using the formula: T/Cweight%=Tweight/Cweight×100%, while Tweight and Cweight were the mean tumor weights of the treated and the vehicle control groups, respectively."}, "[1]": {"test": "Oral bioavailability test, mouse", "settings": "in vivo, 10 mg/kg dose", "protocol": "(§1) All PK experiments are standard tests that performed in either WuXi PharmaTech or Charels River Laboratory. 4315 and 4485 (Orin 1001) were dosed PO as a suspension in 1% microcellulose (Sigma) and 50% Sucrouse (Sigma)."}, "[2]": {"test": "Oral bioavailability test, dog", "settings": "in vivo, 4 mg/kg dose", "protocol": "as §1"}, "[3]": {"system": "human glioblastoma U-87 MG tumor cells", "test": "U-87 MG glioblastoma xenograft (Example 19)", "format": "in vivo, female NCr nu/nu mice", "protocol": "(§2) Orin 1001 was administered by oral gavage in a xenograft mouse model using female NCr nu/nu mice injected subcutaneously with human glioblastoma U-87 MG tumor cells, a glioblastoma multiforme (GBM) cell line. Animals were assigned to 4 groups (n=6/group); Vehicle control administered by oral gavage for 28 days, Orin 1001 administered via oral gavage at 300 mg/kg/day for 28 consecutive days, paclitaxel administered weekly by iv at 15 mg/kg, or Orin 1001 administered in combination with paclitaxel.\nThe percent tumor growth delay was calculated using the following equation: TGD (%)=[T-C/C]×100; where T-C is the difference in time to tumor endpoint from Treated (T) and Control (C).\nThe time to tumor endpoint (TTE) for each animal was further calculated using the following equation: TTE (days)=log 10 (endpoint volume, mm^3)-b/m, where b is the intercept and m is the slope of the line obtained by linear regression of the log-transformed tumor growth data set."}, "IRE1α": {"target": "T1, IRE1α (Mus musculus, UniProt Q9EQY0)", "T1 construct": "from tissue; host or cells: liver of BALB/c mice (in vivo)", "T1 sequence (Q9EQY0 21-977)": "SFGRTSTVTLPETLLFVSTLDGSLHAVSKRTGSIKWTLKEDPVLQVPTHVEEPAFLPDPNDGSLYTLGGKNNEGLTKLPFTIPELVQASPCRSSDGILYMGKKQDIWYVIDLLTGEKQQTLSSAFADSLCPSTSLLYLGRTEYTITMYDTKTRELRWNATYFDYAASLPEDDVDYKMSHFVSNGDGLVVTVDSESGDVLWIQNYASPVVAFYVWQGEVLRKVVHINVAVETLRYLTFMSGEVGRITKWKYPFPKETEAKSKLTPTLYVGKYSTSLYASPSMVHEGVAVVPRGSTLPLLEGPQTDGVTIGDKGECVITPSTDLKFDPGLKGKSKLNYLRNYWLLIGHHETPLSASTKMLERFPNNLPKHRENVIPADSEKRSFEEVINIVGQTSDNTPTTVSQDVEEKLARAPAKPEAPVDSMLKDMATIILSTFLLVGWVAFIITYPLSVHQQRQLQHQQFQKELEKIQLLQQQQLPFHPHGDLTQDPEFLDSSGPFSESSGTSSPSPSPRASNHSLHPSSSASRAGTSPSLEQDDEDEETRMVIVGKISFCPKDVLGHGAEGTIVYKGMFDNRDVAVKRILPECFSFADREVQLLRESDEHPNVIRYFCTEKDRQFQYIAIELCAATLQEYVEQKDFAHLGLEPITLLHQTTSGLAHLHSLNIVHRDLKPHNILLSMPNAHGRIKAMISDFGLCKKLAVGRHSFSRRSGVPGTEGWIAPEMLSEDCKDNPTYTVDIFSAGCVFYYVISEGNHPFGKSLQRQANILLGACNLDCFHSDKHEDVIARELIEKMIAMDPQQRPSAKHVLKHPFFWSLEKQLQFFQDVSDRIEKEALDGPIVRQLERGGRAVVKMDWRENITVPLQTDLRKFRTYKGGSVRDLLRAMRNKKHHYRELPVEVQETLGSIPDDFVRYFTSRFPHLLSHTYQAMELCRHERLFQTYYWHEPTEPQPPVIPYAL", "test": "Liver PD screening assay: XBP-1 splicing analysis of liver after tunicamycin (Example 25)", "format": "in vivo, BALB/c mice", "settings": "PO, 2 hours after tunicamycin 1 mg/kg ip, liver 2 hours after dosing, FIG. 23, read-out: ED50 (inhibition of XBP-1 splicing in liver)", "protocol": "Example 25 was related to comparative PD/PK data of Orin 1001 VS compound 4315, as its structure shown below, which is an earlier lead of this series of compounds. Tunicamycin was used herein to activate IRE1, then Orin 1001 (also called 4485) or 4315 were given to inhibit the activating effect. […] Each gel panel represents one mouse liver sample as in the figure.\nBALB/c mice were injected intraperitoneally with 100 microliters at an equivalent dose of 1 mg/kg tunicamycin solution. Two hours after tunicamycin injection, mice were dosed with compound of interest either PO or IV. Following 2 hours for PO delivery of compound, mice were euthanized according to IACUC protocols using CO2 from a […] source. A 1 cm^3 fragment of the liver for homogenization and extraction of the RNA were collected for further analysis. Total RNA is harvested from cells or tissue using TRIzol according to the manufacturer's procedures. After ethanol precipitation and resuspension of the RNA, RiboGreen (Invitrogen) is used to quantify the yield and normalize the RNA concentration in the source tube containing isolated RNA. RT-PCR is performed by Oligo(dT) priming, and SuperScript II (Invitrogen) transcription using the Amplitaq Gold Kit (Applied Biosystems) according to the manufacturer's protocols. Primers for human XBP-1 are 5_-[…]-3_ (forward, Seq ID No. 8) and 5_-[…]-3_ (reverse, Seq ID No. 9), and for mouse are 5_-[…]-3_ (forward, Seq ID No. 10) and 5_-[…]-3 (Seq ID No. 11). All DNA oligos were purchased from IDT DNA Technologies. PCR is run on a Bio-Rad PTC-100 96-well thermocycler with heating at 94° C. for 30 s, annealing at 58° C. for 30 s, and polymerizing at 72° C. for 30 s for 35 cycles. Reactions are run on 4% precast NuSieve gels from Cambrex and visualized by ethidium bromide staining and UV excitation.\nas §1"}, "[4]": {"test": "Oral bioavailability test, rat", "settings": "in vivo, 10 mg/kg dose", "protocol": "as §1"}, "[5]": {"system": "human breast adenocarcinoma MDA-MB231 tumor cells", "format": "in vivo", "protocol": "Orin 1001 was administered by oral gavage in combination with paclitaxel in a xenograft mouse model using female NCr nu/nu mice injected subcutaneously with human breast adenocarcinoma MDA-MB231 tumor cells. To evaluate the effect of Orin 1001 in combination with paclitaxel on early, mid or late stage tumor growth, dosing was initiated either on Day 1 (when tumors reached 225-250 mm^3), Day 14 or Day 28 of tumor growth. Orin 1001 was administered via oral gavage at 300 mg/kg/day in combination with paclitaxel at 10 mg/kg iv, weekly (n=10/group) for up to 60 days."}, "[6]": {"system": "human ovarian carcinoma A2780 tumor cells", "test": "A2780 ovarian carcinoma xenograft (Example 18)", "format": "in vivo, female NCr nu/nu mice", "settings": "Orin 1001 300 mg/kg/day oral 28 days; paclitaxel 15 mg/kg iv weekly; endpoint 2000 mm^3 or Day 60", "protocol": "as §2, with “ovarian carcinoma A2780” for “glioblastoma U-87 MG”, “cells.” for “cells, a glioblastoma multiforme (GBM) cell line.”\nThe percent tumor growth delay was calculated using the following equation: TGD (%)=[T-C/C]×100, where T-C is the difference in time to tumor endpoint from Treated (T) and Control (C)."}, "[7]": {"settings": "Orin 1001 300 mg/kg/day oral 28 days, paclitaxel 15 mg/kg iv weekly, endpoint 2000 mm^3 or Day 60"}}}
{"smiles": "COc1cc2c(C)c(CC(=O)N3CCOCC3)c(=O)oc2c(C=O)c1O", "note": "[Orin 1001]", "values": [{"measurement": "T/Cweight (%)", "setting": "Hep3B-Luc cells; mean tumor weight treated / vehicle control, day 28", "result": 56, "unit": "%"}, {"measurement": "Tumor Weight (g) at day 28", "setting": "Hep3B-Luc cells; oral gavage 28 consecutive days, Orin 1001 80 mg/kg/day, sorafenib 45 mg/kg/day", "result": "2.68 ± 1.69", "unit": "g"}, {"measurement": "bioavailability", "setting": "[1]", "result": 63, "unit": "%"}, {"measurement": "bioavailability", "setting": "[2]", "result": 68.5, "unit": "%"}, {"measurement": "percent tumor growth delay (TGD)", "setting": "[3]; [7]", "result": 13, "unit": "%"}, {"measurement": "time to tumor endpoint (TTE)", "setting": "[3]; [7]", "result": 29.3, "unit": "days"}, {"measurement": "tumor delay effect over the control", "setting": "[3]; each agent alone", "result": "not very significant"}, {"measurement": "ED50", "setting": "IRE1α", "result": "< 2", "unit": "mg/kg"}, {"measurement": "bioavailability", "setting": "[4]", "result": 52, "unit": "%"}, {"measurement": "clinical signs of toxicity", "setting": "[5]; 300 mg/kg/day oral gavage with paclitaxel 10 mg/kg iv weekly, up to 60 days", "result": "no clinical signs of toxicity"}, {"measurement": "tolerability of extended oral dosing", "setting": "[5]; up to 60 consecutive days", "result": "well tolerated"}, {"measurement": "percent tumor growth delay (TGD)", "setting": "[6]", "result": 29, "unit": "%"}]}
